Key:
Type in all cases: in vivo
[1] = test system: pigweed (Amaranthus retroflexus); assay: Test A postemergence; conditions: Amaranthus retroflexus, post-emergence, 240 h, read-out: Plant response rating, Pigweed; for pest or weed control at 125 g/ha: 125 g ai/ha, Postemergence, visual injury after approximately 10 d, 0 to 100 scale where 0 is no effect and 100 is complete control; for pest or weed control at 500 g/ha: 500 g ai/ha, postemergence, visual injury, 0 to 100 scale (0 no effect, 100 complete control), approx. 10 d
Procedure, shortened: (§1)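 Seeded soil received test chemicals as a preemergence directed spray, and seedlings at one to two leaves, 2–10 cm tall, received them postemergence, in a non-phytotoxic, surfactant-containing solvent mixture. Pots were held in a greenhouse for approximately 10 d, then rated for injury from 0, no effect, to 100, complete control.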

corn (Zea mays) = assay: Test A postemergence; conditions: Zea mays, post-emergence, 240 h; for Corn plant response rating (crop injury, 0 = no effect, 100 = complete kill) at 125 g/ha: 125 g ai/ha, Postemergence, visual injury after approximately 10 d, 0 to 100 scale where 0 is no effect and 100 is complete control; for Corn plant response rating (crop injury, 0 = no effect, 100 = complete kill) at 500 g/ha: 500 g ai/ha, postemergence, visual injury, 0 to 100 scale (0 no effect, 100 complete control), approx. 10 d
Procedure, shortened: as §1

[2] = test system: barnyardgrass (Echinochloa crus-galli); assay: Test A postemergence; conditions: Echinochloa crus-galli, post-emergence, 240 h, read-out: Plant response rating, Barnyardgrass; for pest or weed control at 125 g/ha: 125 g ai/ha, Postemergence, visual injury after approximately 10 d, 0 to 100 scale where 0 is no effect and 100 is complete control; for pest or weed control at 500 g/ha: 500 g ai/ha, postemergence, visual injury, 0 to 100 scale (0 no effect, 100 complete control), approx. 10 d
Procedure, shortened: as §1

Kochia (Kochia scoparia) [3] = assay: Test A postemergence; conditions: Bassia scoparia, post-emergence, 240 h, read-out: Plant response rating, Kochia; for pest or weed control at 125 g/ha: 125 g ai/ha, Postemergence, visual injury after approximately 10 d, 0 to 100 scale where 0 is no effect and 100 is complete control; for pest or weed control at 500 g/ha: 500 g ai/ha, postemergence, visual injury, 0 to 100 scale (0 no effect, 100 complete control), approx. 10 d
Procedure, shortened: as §1

[4] = test system: giant foxtail (Setaria faberii); assay: Test A postemergence; conditions: Setaria faberi, post-emergence, 240 h, read-out: Plant response rating, Foxtail, Giant; for pest or weed control at 125 g/ha: 125 g ai/ha, Postemergence, visual injury after approximately 10 d, 0 to 100 scale where 0 is no effect and 100 is complete control; for pest or weed control at 500 g/ha: 500 g ai/ha, postemergence, visual injury, 0 to 100 scale (0 no effect, 100 complete control), approx. 10 d
Procedure, shortened: as §1

[5] = test system: wheat (Triticum aestivum); assay: Test A postemergence; conditions: Triticum aestivum, post-emergence, 240 h, read-out: Plant response rating, Wheat; for plant injury at 125 g/ha: 125 g ai/ha, Postemergence, visual injury after approximately 10 d, 0 to 100 scale where 0 is no effect and 100 is complete control; for plant injury at 500 g/ha: 500 g ai/ha, postemergence, visual injury, 0 to 100 scale (0 no effect, 100 complete control), approx. 10 d
Procedure, shortened: as §1

[6] = test system: ryegrass, Italian (Italian ryegrass, Lolium multiflorum); assay: Test A postemergence; conditions: Lolium multiflorum, post-emergence, 240 h, read-out: Plant response rating, Ryegrass, Italian; for pest or weed control at 125 g/ha: 125 g ai/ha, Postemergence, visual injury after approximately 10 d, 0 to 100 scale where 0 is no effect and 100 is complete control; for pest or weed control at 500 g/ha: 500 g ai/ha, postemergence, visual injury, 0 to 100 scale (0 no effect, 100 complete control), approx. 10 d
Procedure, shortened: as §1

[7] = test system: Galium (catchweed bedstraw, Galium aparine); assay: Test A postemergence; conditions: Galium, post-emergence, 240 h, read-out: Plant response rating, Galium; for pest or weed control at 125 g/ha: 125 g ai/ha, Postemergence, visual injury after approximately 10 d, 0 to 100 scale where 0 is no effect and 100 is complete control; for pest or weed control at 500 g/ha: 500 g ai/ha, postemergence, visual injury, 0 to 100 scale (0 no effect, 100 complete control), approx. 10 d
Procedure, shortened: as §1

[8] = test system: blackgrass (Alopecurus myosuroides); assay: Test A postemergence; conditions: Alopecurus myosuroides, post-emergence, 240 h, read-out: Plant response rating, Blackgrass; for pest or weed control at 125 g/ha: 125 g ai/ha, Postemergence, visual injury after approximately 10 d, 0 to 100 scale where 0 is no effect and 100 is complete control; for pest or weed control at 500 g/ha: 500 g ai/ha, postemergence, visual injury, 0 to 100 scale (0 no effect, 100 complete control), approx. 10 d
Procedure, shortened: as §1

[9] = test system: pigweed (Amaranthus retroflexus); assay: Test A preemergence; conditions: Amaranthus retroflexus, pre-emergence, 240 h; for pest or weed control at 125 g/ha: 125 g ai/ha, Preemergence, visual injury rating after approximately 10 d, read-out: Pigweed plant response rating (0 to 100 scale, 0 is no effect, 100 is complete control); for pest or weed control at 500 g/ha: 500 g ai/ha, preemergence, visual injury rating about 10 d after treatment, 0 to 100 scale (0 no effect, 100 complete control), read-out: Pigweed plant response rating
[10] = test system: barnyardgrass (Echinochloa crus-galli); assay: Test A preemergence; conditions: Echinochloa crus-galli, pre-emergence, 240 h; for pest or weed control at 125 g/ha: 125 g ai/ha, Preemergence, visual injury rating after approximately 10 d, read-out: Barnyardgrass plant response rating (0 to 100 scale, 0 is no effect, 100 is complete control); for pest or weed control at 500 g/ha: 500 g ai/ha, preemergence, visual injury rating about 10 d after treatment, 0 to 100 scale (0 no effect, 100 complete control), read-out: Barnyardgrass plant response rating
Procedure, shortened: as §1

Kochia (Kochia scoparia) [11] = assay: Test A preemergence; conditions: Bassia scoparia, pre-emergence, 240 h; for pest or weed control at 125 g/ha: 125 g ai/ha, Preemergence, visual injury rating after approximately 10 d, read-out: Kochia plant response rating (0 to 100 scale, 0 is no effect, 100 is complete control); for pest or weed control at 500 g/ha: 500 g ai/ha, preemergence, visual injury rating about 10 d after treatment, 0 to 100 scale (0 no effect, 100 complete control), read-out: Kochia plant response rating
Procedure, shortened: as §1

[12] = test system: giant foxtail (Setaria faberii); assay: Test A preemergence; conditions: Setaria faberi, pre-emergence, 240 h; for pest or weed control at 125 g/ha: 125 g ai/ha, Preemergence, visual injury rating after approximately 10 d, read-out: Foxtail, Giant plant response rating (0 to 100 scale, 0 is no effect, 100 is complete control); for pest or weed control at 500 g/ha: 500 g ai/ha, preemergence, visual injury rating about 10 d after treatment, 0 to 100 scale (0 no effect, 100 complete control), read-out: Foxtail, Giant plant response rating
Procedure, shortened: as §1

[13] = test system: ryegrass, Italian (Italian ryegrass, Lolium multiflorum); assay: Test A preemergence; conditions: Lolium multiflorum, pre-emergence, 240 h; for pest or weed control at 125 g/ha: 125 g ai/ha, Preemergence, visual injury rating after approximately 10 d, read-out: Ryegrass, Italian plant response rating (0 to 100 scale, 0 is no effect, 100 is complete control); for pest or weed control at 500 g/ha: 500 g ai/ha, preemergence, visual injury rating about 10 d after treatment, 0 to 100 scale (0 no effect, 100 complete control), read-out: Ryegrass, Italian plant response rating
Procedure, shortened: as §1

[14] = test system: ragweed (common ragweed, Ambrosia elatior); assay: Test A preemergence; conditions: Ambrosia artemisiifolia, pre-emergence, 240 h; for pest or weed control at 125 g/ha: 125 g ai/ha, Preemergence, visual injury rating after approximately 10 d, read-out: Ragweed plant response rating (0 to 100 scale, 0 is no effect, 100 is complete control); for pest or weed control at 500 g/ha: 500 g ai/ha, preemergence, visual injury rating about 10 d after treatment, 0 to 100 scale (0 no effect, 100 complete control), read-out: Ragweed plant response rating
Procedure, shortened: as §1

SMILES | pest or weed control at 125 g/ha [1] | pest or weed control at 500 g/ha [1] | Corn plant response rating (crop injury, 0 = no effect, 100 = complete kill) at 125 g/ha (corn (Zea mays)) | Corn plant response rating (crop injury, 0 = no effect, 100 = complete kill) at 500 g/ha (corn (Zea mays)) | pest or weed control at 125 g/ha [2] | pest or weed control at 500 g/ha [2] | pest or weed control at 125 g/ha (Kochia (Kochia scoparia) [3]) | pest or weed control at 500 g/ha (Kochia (Kochia scoparia) [3]) | pest or weed control at 125 g/ha [4] | pest or weed control at 500 g/ha [4] | plant injury at 125 g/ha [5] | plant injury at 500 g/ha [5] | pest or weed control at 125 g/ha [6] | pest or weed control at 500 g/ha [6] | pest or weed control at 125 g/ha [7] | pest or weed control at 500 g/ha [7] | pest or weed control at 125 g/ha [8] | pest or weed control at 500 g/ha [8] | pest or weed control at 125 g/ha [9] | pest or weed control at 500 g/ha [9] | also measured
Cc1ccc([C@H]2CN(C)C(=O)[C@@H]2C(=O)Nc2cccc(F)c2C)cc1Cl [Compound 1014] | 30% | 30% | 70% | 90% | 90% | 90% | 30% | 50% | 90% | 90% | 30% | 80% | 30% | 60% | 20% | 60% | 0% | 50% | 30% | 30% | pest or weed control at 125 g/ha [10]: 90%; pest or weed control at 500 g/ha [10]: 90%; pest or weed control at 125 g/ha (Kochia (Kochia scoparia) [11]): 20%; pest or weed control at 500 g/ha (Kochia (Kochia scoparia) [11]): 70%; pest or weed control at 125 g/ha [12]: 90%; pest or weed control at 500 g/ha [12]: 90%; pest or weed control at 125 g/ha [13]: 0%; pest or weed control at 500 g/ha [13]: 70%; pest or weed control at 125 g/ha [14]: 0%; pest or weed control at 500 g/ha [14]: 0%
CC(=O)Oc1ccc(F)c(NC(=O)[C@H]2C(=O)N(C)C[C@@H]2c2cc(F)cc(F)c2)c1 [Compound 1019] | 0% | 0% | 0% | 0% | 0% | 0% | 0% | 0% | 0% | 0% | 0% | 0% | 0% | 0% | 0% | 0% | 0% | 0% | 0% | 0% | pest or weed control at 125 g/ha [10]: 0%; pest or weed control at 500 g/ha [10]: 0%; pest or weed control at 125 g/ha (Kochia (Kochia scoparia) [11]): 0%; pest or weed control at 500 g/ha (Kochia (Kochia scoparia) [11]): 0%; pest or weed control at 125 g/ha [12]: 0%; pest or weed control at 500 g/ha [12]: 0%; pest or weed control at 125 g/ha [13]: 0%; pest or weed control at 500 g/ha [13]: 0%; pest or weed control at 125 g/ha [14]: 0%; pest or weed control at 500 g/ha [14]: 0%
O=C1NC[C@H](c2ccc3c(c2)OCO3)[C@H]1C(=O)Nc1ccc(F)cc1F [Compound 1026] | 0% | 0% | 0% | 30% | 70% | 90% | 0% | 0% | 0% | 20% | 20% | 30% | 0% | 0% | 0% | 50% | 0% | 0% | 0% | 0% | pest or weed control at 125 g/ha [10]: 90%; pest or weed control at 500 g/ha [10]: 90%; pest or weed control at 125 g/ha (Kochia (Kochia scoparia) [11]): 30%; pest or weed control at 500 g/ha (Kochia (Kochia scoparia) [11]): 80%; pest or weed control at 125 g/ha [12]: 30%; pest or weed control at 500 g/ha [12]: 90%; pest or weed control at 125 g/ha [13]: 0%; pest or weed control at 500 g/ha [13]: 0%; pest or weed control at 125 g/ha [14]: 50%; pest or weed control at 500 g/ha [14]: 50%

Reference: US12077503B2, “Substituted cyclic amides and their use as herbicides” (FMC CORPORATION, priority 2015, dated 2024)
